The term kon denotes a measure of how fast the partners come together. The low end stands for slow association, the high end for fast association.

From article PMC8705818, “Experimental Characterization of the Interaction between the N-Terminal SH3 Domain of Crkl and C3G” (International Journal of Molecular Sciences, 2021) come the findings set out here.

Peptide text beside a SMILES is read from it. * marks the point of attachment. Dansyl = CN(C)c1cccc2c(S(=O)(=O)*)cccc12

This assay concerns the target T1, N-SH3 domain of Crkl (WT) (Homo sapiens, UniProt P46109).
T1 construct: The construct encoding the N-SH3 domain of Crkl was subcloned in a pET28b+ plasmid vector; His-tag; made in house; host or cells: E. coli BL21
As to the kind of experiment: Stopped-flow kinetic binding, N-SH3 WT versus C3G277–296. Particulars: 10 °C. From the text: In order to characterize the binding reaction between the N-SH3 domain of Crkl and C3G, we conducted kinetic binding experiments with a stopped-flow apparatus, by rapidly mixing the N-SH3 domain versus the C3G277–296 peptide, the latter covalently linked with a dansyl group at its N-terminus (Dansyl-[…]). This modification allowed us to monitor the binding reaction by following the change of Förster resonance energy transfer (FRET) signal upon binding, which generates from the two naturally present tryptophan residues in the N-SH3 domain in position 164 and 165 (donor) and the dansyl group linked to the peptide (acceptor).
To characterize the binding between N-SH3 and the C3G277–296 peptide, we resorted to carry out pre-steady state rapid mixing stopped-flow experiments. In these types of experiments, a common practice lies in performing the kinetic analysis under the so-called pseudo-first-order conditions, i.e., a condition in which one of the two reactants is held at a much higher concentration than the other. In practice, in many cases, it is extremely difficult to achieve such conditions. This is particularly true in cases in which the observed rate constants are so high to approach the experimental limitations of the stopped-flow apparatus. Accordingly, as described below, the analysis of the binding data must be performed by applying the analytical solution of the bimolecular binding transition.
We rapidly mixed a constant concentration of C3G277–296 peptide (0.5 µM) versus increasing concentrations of N-SH3 (ranging from 0.5 to 5 µM) and the observed rate constants (kobs) obtained at different ionic strength conditions (buffer Hepes 50 mM, pH 7.0, 0.15 M, 0.3 M, 0.5 M and 1 M NaCl) were plotted as function of concentration of N-SH3 and fitted with a linear equation (Figure 1). By following previously derived equations [19, 20], the dependence of kobs as function of [N-SH3] was fitted with Equation (1), taking into account the non-pseudo-first order conditions, allowing us to calculate the microscopic association rate constant (kon), the microscopic dissociation rate constant (koff) of the binding reaction and the equilibrium dissociation rate constant KD, such as koff/kon. To increase the reliability of the calculated KD, we resorted to directly obtaining a koff value through displacement experiments (Table 1), in which a preincubated complex of N-SH3 domain and dansylated C3G277–296 peptide (at the concentration of 0.5 and 2 µM, respectively) were rapidly mixed versus a high excess of nondansylated peptide (ranging from 20 to 40 µM). In agreement with the theory in [21], the observed rate constants were insensitive to displacer concentration. In all binding and displacement experiments conducted, traces were satisfactorily fitted with a single-exponential equation. (1) kobs=(kon^2∗(2−[NSH3])^2+koff^2+2konkoff(2+[NSH3]))^1/2
To further investigate the role of charges in the binding reaction between N-SH3 domain and C3G, we resorted to performing kinetic binding experiment at different pH conditions, at a range of pH between 5.0 and 9.0. The observed rate constants obtained at different pH conditions were fitted with Equation (1) (Figure 2, left), and the calculated kinetic parameters kon and koff (obtained from separated displacement experiments) are reported in Table 1.
Kinetic binding experiments were performed on a single-mixing SX-18 stopped-flow instrument (Applied Photophysics), by mixing a constant concentration (0.5 μM) of C3G dansylated versus increasing concentrations of N-SH3 at 10 °C. Ionic strength dependence of wt N-SH3 was performed with concentrations ranging from 1 to 5 µM for 0 M NaCl condition and from 0.5 to 5 µM for 0.15 M, 0.3 M, 0.5 M and 1 M NaCl, buffer Hepes 50 mM pH 7.0. The excitation wavelength was 280 nm, and fluorescence was collected using a 455 nm cut-off filter. At least, five independent acquisitions were collected and averaged for each experiment. […]

T1 sequence (P46109 123-183 limits assumed): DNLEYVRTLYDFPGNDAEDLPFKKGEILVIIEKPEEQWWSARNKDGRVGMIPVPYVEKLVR

`CC(C)C[C@H](NC(=O)[C@H](C)NC(=O)[C@@H]1CCCN1C(=O)[C@@H]1CCCN1C(=O)[C@@H]1CCCN1C(=O)[C@H](CO)NC(=O)[C@H](CC(N)=O)NC(=O)[C@H](CC(=O)O)NC(=O)[C@@H](NC(=O)[C@@H](NS(=O)(=O)c1cccc2c(N(C)C)cccc12)C(C)C)C(C)C)C(=O)N1CCC[C@H]1C(=O)N1CCC[C@H]1C(=O)N[C@@H](CCCCN)C(=O)N[C@@H](CCCCN)C(=O)N[C@@H](CCCNC(=N)N)C(=O)N[C@@H](CCC(N)=O)C(=O)N[C@@H](CO)C(=O)N[C@@H](C)C(=O)N1CCC[C@H]1C(=O)N[C@@H](CO)C(=O)O` [C3G277–296] (Dansyl-VVDNSPPPALPPKKRQSAPS-OH) yielded a kon (pH 5, pH 5.0 (50 mM Sodium Acetate), 0.5 M NaCl, 0.5 µM dansylated peptide vs 4.0–8.0 µM N-SH3) of 4.4e+07 ± 1.5e+07 M⁻¹ s⁻¹; a kon (pH 5.5, pH 5.5 (50 mM Sodium Acetate), 0.5 M NaCl, 0.5 µM dansylated peptide vs 2.0–7.0 µM N-SH3) of 3.7e+07 ± 3e+06 M⁻¹ s⁻¹; a kon (pH 6.5, pH 6.5 (Bis–Tris 50 mM), 0.5 M NaCl, 0.5 µM dansylated peptide vs 0.5–5.0 µM N-SH3) of 6.5e+07 ± 4e+06 M⁻¹ s⁻¹; a kon (pH 7, 0 M NaCl, Hepes 50 mM pH 7.0, 0.5 µM dansylated peptide vs 1–5 µM N-SH3, FRET, ex 280 nm, 455 nm cut-off, at least five acquisitions averaged) of 1.3e+08 ± 7e+06 M⁻¹ s⁻¹; a kon (pH 7, 0.15 M NaCl, Hepes 50 mM pH 7.0, 0.5 µM dansylated peptide vs 0.5–5 µM N-SH3, FRET) of 9.6e+07 ± 8e+06 M⁻¹ s⁻¹; an on-rate (kon) (pH 7, 0.3 M NaCl, Hepes 50 mM pH 7.0, 0.5 µM dansylated peptide vs 0.5–5 µM N-SH3, FRET) of 8.3e+07 ± 7e+06 M⁻¹ s⁻¹. The kon reads like this: (pH 7, 0.5 M NaCl (ionic strength series), Hepes 50 mM pH 7.0, 0.5 µM dansylated peptide vs 0.5–5 µM N-SH3, FRET) 5.1e+07 ± 4e+06 M⁻¹ s⁻¹; (pH 7, 1.0 M NaCl, Hepes 50 mM pH 7.0, 0.5 µM dansylated peptide vs 0.5–5 µM N-SH3, FRET) 6.8e+07 ± 5e+06 M⁻¹ s⁻¹; (pH 7, pH 7.0 (Hepes 50 mM), 0.5 M NaCl (pH series), 0.5 µM dansylated peptide vs 1.5–6.0 µM N-SH3) 5.2e+07 ± 5e+06 M⁻¹ s⁻¹; (pH 7.5, pH 7.5 (Hepes 50 mM), 0.5 M NaCl, 0.5 µM dansylated peptide vs 0.5–5.0 µM N-SH3) 5.1e+07 ± 5e+06 M⁻¹ s⁻¹; (pH 8, pH 8.0 (Tris–HCl 50 mM), 0.5 M NaCl, 0.5 µM dansylated peptide vs 1.5–6.0 µM N-SH3) 5.6e+07 ± 5e+06 M⁻¹ s⁻¹; (pH 8.5, pH 8.5 (Tris–HCl 50 mM), 0.5 M NaCl, 0.5 µM dansylated peptide vs 1.5–6.0 µM N-SH3) 6.8e+07 ± 7e+06 M⁻¹ s⁻¹. The compound further showed a kon (pH 9, pH 9.0 (Tris–HCl 50 mM), 0.5 M NaCl, 0.5 µM dansylated peptide vs 1.5–6.0 µM N-SH3) of 3.9e+07 ± 4e+06 M⁻¹ s⁻¹.
